Data from patent US6965048B2, “Hydroxyalkylamide derivatives” (Hoffmann-La Roche Inc., priority 2003, dated 2005).

melting point: 162 to 165 °C (dec.)
SMILES: CN(CC[C@H]1CC[C@H](C(=O)N2CCC(C(N)=O)CC2)CC1)C(=O)Oc1ccc(Cl)cc1
